Literature values as cited in patent US8841334B2, “Compounds as cannabinoid receptor ligands and uses thereof” (priority 2006, dated 2014).

How the values were obtained:
[1] = system: apolipoprotein E knockout mice
rodent models = rodent models of neuropathic, incisional, and both chronic and acute inflammatory pain
animal models = animal models of acute thermal pain, persistent pain, inflammatory pain and neuropathic pain
rat = rat formalin model of persistent pain
[2] = system: microglial activation and neurotoxicity; conditions: in vitro
mice = conditions: model for post-menopausal osteoporosis

Compound: (−)-Δ^9-Tetrahydrocannabinol [THC]
- progression of atherosclerotic lesions ([1]; low doses): slowed the progression of atherosclerotic lesions

Compound: COc1ccc2c(c1)c(CCN1CCOCC1)c(C)n2C(=O)c1cccc(Cl)c1Cl [GW405833]
- efficacy in pain models (rodent models): efficacious

Compound: CN1CCCCC1Cn1cc(C(=O)c2cc([N+](=O)[O-])ccc2I)c2ccccc21 (stereo not drawn) [AM-1241]
- analgesic efficacy (animal models): robust analgesic efficacy

Compound: CCCCCCC(C)(C)c1cc(OC)c([C@@H]2C=C(CO)[C@@H]3C[C@H]2C3(C)C)c(OC)c1 [HU-308]
- antinociceptive response (rat): elicits an antinociceptive response

Compound: SR144528
- block of the effects of JWH-133 on microglial activation and neurotoxicity [2]: blocked
- osteoclast activity (osteoclast activity): inhibit osteoclast activity
- ovariectomy-induced bone loss (mice): reverse ovariectomy-induced bone loss
- inhibition of the effects of THC on atherosclerotic lesions ([1]; mouse, in vivo): inhibited

Compound: CCCC(C)(C)c1ccc2c(c1)OC(C)(C)[C@@H]1CC=C(C)C[C@@H]21 [JWH-133]
- […]-amyloid-induced microglial activation and neurotoxicity [2]: abrogated
